Like-named read-outs stand apart in the source and are kept apart here.

One series is described as follows: CHI Log D procedure. The following applies: for chromatographic logD: pH 7.4, CHI Log D; for CHI Log D: pH 7.4. It is filed as physicochemical.
The target in series [1] is T1, full-length beta-Catenin (Uniprot ID P35222) (Homo sapiens, UniProt P35222).
T1 construct: 10 nM full-length beta-Catenin (Uniprot ID P35222)
T1 sequence (P35222 1-781): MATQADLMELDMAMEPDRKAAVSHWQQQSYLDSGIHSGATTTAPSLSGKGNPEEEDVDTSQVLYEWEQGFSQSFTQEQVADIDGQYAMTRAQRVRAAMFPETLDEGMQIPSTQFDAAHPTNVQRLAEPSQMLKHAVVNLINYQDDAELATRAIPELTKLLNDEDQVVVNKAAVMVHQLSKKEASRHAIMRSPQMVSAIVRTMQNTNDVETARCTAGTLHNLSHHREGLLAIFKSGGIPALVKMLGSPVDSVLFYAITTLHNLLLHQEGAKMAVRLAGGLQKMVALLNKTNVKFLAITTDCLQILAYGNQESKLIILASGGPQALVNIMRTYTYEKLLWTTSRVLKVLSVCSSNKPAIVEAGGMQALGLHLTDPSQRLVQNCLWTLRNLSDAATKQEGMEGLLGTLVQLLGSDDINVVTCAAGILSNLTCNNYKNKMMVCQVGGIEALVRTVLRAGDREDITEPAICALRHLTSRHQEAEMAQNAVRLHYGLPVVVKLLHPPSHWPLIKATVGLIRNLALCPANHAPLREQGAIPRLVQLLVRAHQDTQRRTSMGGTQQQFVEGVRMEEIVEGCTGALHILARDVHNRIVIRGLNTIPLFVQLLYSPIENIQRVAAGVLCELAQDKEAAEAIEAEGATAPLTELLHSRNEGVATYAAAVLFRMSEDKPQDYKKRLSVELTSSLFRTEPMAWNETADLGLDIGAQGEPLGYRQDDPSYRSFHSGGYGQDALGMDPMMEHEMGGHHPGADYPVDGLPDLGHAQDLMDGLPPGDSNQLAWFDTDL
Kind of series: Fluorescence polarization IC50 (beta-catenin / 5FAM-TCF4 10-53 competition). The class given is binding.

Setting [2] is: fluorescence polarization, beta-catenin, read-out: FP EC50.

Regarding `CC(=O)N1CCC[C@]12CC=CCCCC1(CCCC=CCCCCCC[C@@](C)(C(=O)N[C@@H](Cc3ccccc3Cl)C(=O)N[C@@H](Cc3csc4ccccc34)C(=O)N[C@@H](CCC(N)=O)C(N)=O)NC(=O)[C@H](Cc3ccccc3)NC(=O)[C@H](Cc3ccccc3)NC(=O)[C@H](C)NC(=O)[C@H](C)NC(=O)[C@H](CN(CC(=O)O)CC(F)(F)F)NC(=O)[C@H](CC(=O)O)NC1=O)NC(=O)[C@H](CC(C)(C)C)NC(=O)[C@H](CC(=O)O)NC2=O` (stereo partly drawn) [I-931, Ac-PL3-Asp-Npg-B5-Asp-TfeGA-Ala-Ala-Phe-Phe-S8-2C1F-BztA-Gln-NH2], the chromatographic logD in the series “CHI Log D procedure” stood at 3.36. Besides, the IC50 in series [1] (read-out: beta-Catenin FP IC50) is 221 nM.
The corresponding values for `CC(=O)N1CCC[C@]12CC=CCCCC1(CCCC=CCCCCCC[C@@](C)(C(=O)N[C@@H](Cc3ccccc3C(F)(F)F)C(=O)N[C@@H](Cc3csc4ccccc34)C(=O)N[C@@H](CCC(N)=O)C(N)=O)NC(=O)[C@H](CC(N)=O)NC(=O)[C@H](Cc3ccccc3)NC(=O)[C@H](C)NC(=O)[C@H](C)NC(=O)[C@H](CN(CC(=O)O)CC(F)(F)F)NC(=O)[C@H](CC(=O)O)NC1=O)NC(=O)[C@H](CC(C)(C)C)NC(=O)[C@H](CC(=O)O)NC2=O` (stereo partly drawn) [I-934, Ac-PL3-Asp-Npg-B5-Asp-TfeGA-Ala-Ala-Phe-Asn-S8-2F3MeF-BztA-Gln-NH2] are 2.82 and 69 nM.
On the same counts, the results for `C#CCOCCOCCOCCOCCC(=O)NCCCC[C@H](NC(=O)[C@H](CCC(N)=O)NC(=O)[C@H](Cc1csc2ccccc12)NC(=O)[C@H](Cc1ccsc1)NC(=O)[C@]12CCN(C1)C(=O)OCCCC=CCCCC1(CCCC=CC[C@]3(CCCN3C(C)=O)C(=O)N[C@@H](CC(=O)O)C(=O)N[C@@H](CC(C)(C)C)C(=O)N1)C(=O)N[C@@H](CC(=O)O)C(=O)N[C@@H](CC(=O)O)C(=O)N[C@@H](C)C(=O)N[C@@H](C)C(=O)N[C@@H](Cc1ccccc1)C(=O)N[C@@H](CC(N)=O)C(=O)N2)C(N)=O` (stereo partly drawn) [I-938, Ac-PL3-Asp-Npg-B5-Asp-Asp-Ala-Ala-Phe-Asn-PyrS2-3Thi-BztA-Gln-[PropynPEG4]Lys-NH2] are 2.16 and 9 nM.
As for `CC(=O)N1CCC[C@]12CC=CCCCC1(CCCC=CCCCOC(=O)N3CC[C@@](C(=O)N[C@@H](Cc4ccsc4)C(=O)N[C@@H](Cc4csc5ccccc45)C(=O)N[C@@H](C)C(N)=O)(C3)NC(=O)[C@H](CC(N)=O)NC(=O)[C@H](Cc3ccccc3)NC(=O)[C@H](C)NC(=O)[C@H](C)NC(=O)[C@H](CN(CC(=O)O)CC(F)(F)F)NC(=O)[C@H](CC(=O)O)NC1=O)NC(=O)[C@H](CC(C)(C)C)NC(=O)[C@H](CC(=O)O)NC2=O` (stereo partly drawn) [I-944, Ac-PL3-Asp-Npg-B5-Asp-TfeGA-Ala-Ala-Phe-Asn-PyrS2-3Thi-BztA-Ala-NH2], the “CHI Log D” value in the series “CHI Log D procedure” stood at 1.982. In addition, the IC50 in series [1] (setting [2]) and in series [1] (read-out: beta-Catenin FP IC50) was 761 nM each time.
In the case of `CC(=O)N1CCC[C@]12CC=CCCCC1(CCCC=CCCCOC(=O)N3CC[C@@](C(=O)N[C@@H](Cc4ccsc4)C(=O)N[C@@H](Cc4csc5ccccc45)C(=O)N[C@@H](C)C(N)=O)(C3)NC(=O)[C@H](CC(N)=O)NC(=O)[C@H](Cc3ccccc3)NC(=O)[C@H](C)NC(=O)[C@H](C)NC(=O)[C@H](CN(CC(=O)O)CC(F)(F)F)NC(=O)[C@H](CC(=O)O)NC1=O)NC(=O)[C@H](CC(C)(C)C)NC(=O)[C@H](CC(=O)O)NC2=O` (stereo partly drawn) [I-945, Ac-PL3-Asp-Npg-B5-Asp-TfeGA-Ala-Ala-Phe-Asn-PyrS2-3Thi-BztA-Ala-NH2], the “CHI Log D” value in the series “CHI Log D procedure” is given as 2.104. In addition, the IC50 in series [1] (setting [2]) and in series [1] (read-out: beta-Catenin FP IC50) was 1080 nM each time.
Consider `CC(=O)N1CCC[C@]12CC=CCCCC1(CCCC=CCCCOC(=O)N3CC[C@@](C(=O)N[C@@H](Cc4ccsc4)C(=O)N[C@@H](Cc4csc5ccccc45)C(=O)N[C@@H](Cc4ccc(O)cc4)C(N)=O)(C3)NC(=O)[C@H](CC(N)=O)NC(=O)[C@H](Cc3ccccc3)NC(=O)[C@H](C)NC(=O)[C@H](C)NC(=O)[C@H](CN(CC(=O)O)CC(F)(F)F)NC(=O)[C@H](CC(=O)O)NC1=O)NC(=O)[C@H](CC(C)(C)C)NC(=O)[C@H](CC(=O)O)NC2=O` (stereo partly drawn) [I-952, Ac-PL3-Asp-Npg-B5-Asp-TfeGA-Ala-Ala-Phe-Asn-PyrS2-3Thi-BztA-Tyr-NH2], for which the “CHI Log D” value in the series “CHI Log D procedure” came to 1.975. Besides, the IC50 in series [1] (setting [2]) and in series [1] (read-out: beta-Catenin FP IC50) was 1210 nM each time.
As to `CC(=O)N1CCC[C@]12CC=CCCCC1(CCCC=CCCCOC(=O)N3CC[C@@](C(=O)N[C@@H](Cc4ccsc4)C(=O)N[C@@H](Cc4csc5ccccc45)C(=O)N[C@@H](CO)C(N)=O)(C3)NC(=O)[C@H](Cc3ccccc3)NC(=O)[C@H](Cc3ccccc3)NC(=O)[C@H](C)NC(=O)[C@H](C)NC(=O)[C@H](CN(CC(=O)O)CC(F)(F)F)NC(=O)[C@H](CC(=O)O)NC1=O)NC(=O)[C@H](CC(C)(C)C)NC(=O)[C@H](CC(=O)O)NC2=O` (stereo partly drawn) [I-962, Ac-PL3-Asp-Npg-B5-Asp-TfeGA-Ala-Ala-Phe-Phe-PyrS2-3Thi-BztA-Ser-NH2], in the series “CHI Log D procedure”, the “CHI Log D” value came to 2.046. In addition, the IC50 in series [1] (setting [2]) and in series [1] (read-out: beta-Catenin FP IC50) was 407 nM each time.
On to `CC(=O)N1CCC[C@]12CC=CCCCC1(CCCC=CCCCOC(=O)N3CC[C@@](C(=O)N[C@@H](Cc4ccsc4)C(=O)N[C@@H](Cc4csc5ccccc45)C(=O)N[C@@H](CO)C(N)=O)(C3)NC(=O)[C@H](Cc3ccccc3)NC(=O)[C@H](Cc3ccccc3)NC(=O)[C@H](C)NC(=O)[C@H](C)NC(=O)[C@H](CN(CC(=O)O)CC(F)(F)F)NC(=O)[C@H](CC(=O)O)NC1=O)NC(=O)[C@H](CC(C)(C)C)NC(=O)[C@H](CC(=O)O)NC2=O` (stereo partly drawn) [I-963, Ac-PL3-Asp-Npg-B5-Asp-TfeGA-Ala-Ala-Phe-Phe-PyrS2-3Thi-BztA-Ser-NH2], for which, in “CHI Log D procedure”, the “CHI Log D” value is 2.117. The IC50 in series [1] (setting [2]) and in series [1] (read-out: beta-Catenin FP IC50) was 402 nM in each case.
Take `CCN(CC(=O)O)C[C@@H]1NC(=O)[C@H](CC(=O)O)NC(=O)C2(CCCC=CCCCOC(=O)N3CC[C@@](C(=O)N[C@@H](Cc4ccsc4)C(=O)N[C@@H](Cc4csc5ccccc45)C(=O)N[C@@H](CCC(N)=O)C(N)=O)(C3)NC(=O)[C@H](Cc3ccccc3)NC(=O)[C@H](Cc3ccccc3)NC(=O)[C@H](C)NC(=O)[C@H](C)NC1=O)CCCC=CC[C@]1(CCCN1C(C)=O)C(=O)N[C@@H](CC(=O)O)C(=O)N[C@@H](CC(C)(C)C)C(=O)N2` (stereo partly drawn) [I-970, Ac-PL3-Asp-Npg-B5-Asp-EtGA-Ala-Ala-Phe-Phe-PyrS2-3Thi-BztA-Gln-NH2]: the “CHI Log D” value in the series “CHI Log D procedure” is given as 1.853. Also, the IC50 in series [1] (setting [2]) and in series [1] (read-out: beta-Catenin FP IC50) was 1360 nM throughout.
As to `CC(=O)N1CCC[C@]12CC=CCCCC1(CCCC=CCCCOC(=O)N3CC[C@@](C(=O)N[C@@H](Cc4ccsc4)C(=O)N[C@@H](Cc4csc5ccccc45)C(=O)N[C@@H](CCC(N)=O)C(N)=O)(C3)NC(=O)[C@H](CO)NC(=O)[C@H](Cc3ccccc3)NC(=O)[C@H](C)NC(=O)[C@H](C)NC(=O)[C@H](Cc3cccc(C(=O)O)c3)NC(=O)[C@H](CC(=O)O)NC1=O)NC(=O)[C@H](CC(C)(C)C)NC(=O)[C@H](CC(=O)O)NC2=O` (stereo partly drawn) [I-978, Ac-PL3-Asp-Npg-B5-Asp-3COOHF-Ala-Ala-Phe-Ser-PyrS2-3Thi-BztA-Gln-NH2], the “CHI Log D” value in the series “CHI Log D procedure” came to 1.745. Besides, the IC50 in series [1] (setting [2]) and in series [1] (read-out: beta-Catenin FP IC50) was 112 nM throughout.

(Values after US20240116985A1, “STAPLED PEPTIDES AND METHODS THEREOF” (priority 2020, published 2024).)
